These results are taken from patent US9011988B2, “Liquid-crystal compound, liquid-crystal composition, light absorption anisotropic film, and liquid-crystal display device” (Fujifilm Corporation, priority 2010, dated 2015).

Common to all, as to type: physicochemical
The nature of data set [1]: Light resistance of light absorption anisotropic film (change in intensity of absorption). The method, then:
While being heated from room temperature to 200° C., each of the light absorption anisotropic films that had been prepared was irradiated with 10 mW of light and the light resistance was determined based on the change in the intensity of absorption.

Data set [2] can be described thus: Maximum absorption wavelength of the dye in N-methylpyrrolidone (UV-2550 spectrophotometer). The following applies: for λmax: in N-methylpyrrolidone solvent. The method, then:
<Maximum Absorption Wavelength>
The maximum absorption wavelength of the dye in N-methylpyrrolidone solvent was measured with a UV-2550 spectrophotometer (made by Shimadzu Corp.).

The nature of data set [3]: Phase transition temperature by DSC thermal analysis and polarizing microscope observation. The protocol:
<Phase Transition Temperature>
The phase transition temperature was determined by thermal analysis with a DSC measurement apparatus (made by Seiko Instruments) and by visual observation with a polarizing microscope.
A general note: In DSC, transitions show as peaks or steps in heat flow.

A short description of data set [4]: Solubility in chloroform / preparation of chloroform coating liquid. The method, then:
The solubility of these compounds in chloroform was measured.
Following stirring and dissolution, a liquid-crystal composition coating liquid was obtained. Each of the coating liquids was then coated on an alignment film that had been formed on a glass substrate and had been rubbed. Subsequently, the chloroform was allowed to dry naturally at room temperature, yielding individual light absorption anisotropic films. The polyvinylalcohol indicated below was employed as the alignment film.

Where [5] appears, read: light absorption anisotropic film irradiated with 10 mW of light while heated from room temperature to 200° C., change in intensity of absorption.

With `CCCCCCOc1ccc(N=Nc2ccc(C=Cc3cc(OCCOCCOCCOC)c(C=Cc4ccc(N=Nc5ccc(OCCCCCC)cc5)cc4)cc3OC)cc2)cc1` [A-3], in data set [1] (setting [5]), the Light resistance result is given as “Good”. In addition, the λmax in data set [2] turned out to be 463.3 nm.

Turning to `CCCCCCOc1ccc(N=Nc2ccc(C=Cc3cc(OCCOCCOCCOC)c(C=Cc4ccc(N=Nc5ccc(OCCCCCC)cc5)cc4)cc3OCCOCCOCCOC)cc2)cc1` [A-10], in data set [1] (setting [5]), the Light resistance result is recorded as “Good”. In data set [2], this compound returned a λmax of 457.5 nm.

Turning to `CCCCCCOc1ccc(N=Nc2ccc(C=Cc3cc(OC)c(C=Cc4ccc(N=Nc5ccc(OCCCCCC)cc5)cc4)cc3OC)cc2)cc1` [A-34], the “temperature range in which nematic liquid crystallinity was confirmed” value in data set [3] was at least 247 °C. Also, the λmax in data set [2] is 463.4 nm.

Take `CCCCCCCCCCCCCCCCCCOc1cc(C=Cc2ccc(N=Nc3ccc(OCCCCCC)cc3)cc2)c(OC)cc1C=Cc1ccc(N=Nc2ccc(OCCCCCC)cc2)cc1` [A-9]: the Light resistance result in data set [1] (setting [5]) is on record as “Good”. This compound also displayed a λmax in data set [2] of 460.0 nm.

`CCCCCCOc1ccc(/C=C/c2ccc(/C=C/c3cc(OCCOCCOCCOCCOCCOCCO)c(/C=C/c4ccc(/C=C/c5ccc(OCCCCCC)cc5)cc4)cc3OC)cc2)cc1` [Comparative Compound 2, reference compound]: the “solubility in chloroform (in words)” value in data set [4] is listed as “good solubility”. The Light resistance result in data set [1] (film heated from room temperature to 200° C., irradiated with 10 mW of light) is on record as “poor light resistance”; in data set [1] (setting [5]), “Poor”. Besides, the original absorption wavelength in data set [2] is reported as 432.5 nm.

For the compound `CCCCc1ccc(N=Nc2ccc(N=Nc3ccc(N=Nc4ccc(N=Nc5ccc(N=Nc6ccc(CCCC)cc6)cc5)cc4C)c(C)c3)cc2)cc1` [Comparative Compound 1], the “preparation of coating liquid” value in data set [4] (1 weight part compound in 99 weight parts of chloroform) was “precluding preparation of a coating liquid”. Besides, in data set [4], the “solubility in chloroform (in words)” value is reported as “almost no solubility”. Further, in data set [3], the “temperature range in which nematic liquid crystallinity was confirmed” value was at least 220 °C.

In the case of `CCCCCCOc1ccc(N=Nc2ccc(C=Cc3cc(OCCOCCOCCO)c(C=Cc4ccc(N=Nc5ccc(OCCCCCC)cc5)cc4)cc3OC)cc2)cc1` [A-4], the Light resistance entry in data set [1] (setting [5]) is listed as “Good”. In data set [2], this compound showed a λmax of 463.8 nm.
